Experimental data taken from paper PMC9166630, “SAR Probing of KX2-391 Provided Analogues With Juxtaposed Activity Profile Against Major Oncogenic Kinases” (Frontiers in Oncology, 2022).

Columns and labels:
Conditions in all cases: 4e 0.1 µM, HL60 lysate
Src = assay: PamChip tyrosine kinase microarray, Src; assay type: biochemical, human
Method: (§1) The changes in kinase activities induced by treatment with 4e were monitored within the HL60 cell lines using PamGene’s (Hertogenbosch, Netherlands) PamChip® peptide microarray profiler, which quantifies the activities of 144 tyrosine kinases (YK) ([29], [30]) (Figure 7). Results are provided as a log fold change (LFC) heatmap and Mean Kinase Statistic. From the LFC it is apparent that compound 4e, at a concentration of 0.1 µM, induced sizable changes to the activity of several kinases within the cell signaling YK profile (Figure 7A).
(§2) An Upstream Kinase tool was used to generate a putative list of kinases responsible for phosphorylating the phospho-sites on the PamChip (Figure 7B) ([31]). It is an interpretation and is highly dependent on the contents of the underlying phosphorylation databases. A Kinase Score was used for ranking kinases based on their significance and specificity in terms of the set of peptides used for the corresponding kinase. Kinase Statistics indicates the overall change of the peptide set that represents the kinase. Kinase statistics value <0 indicates lower kinase activity in the compound spiked lysate and vice versa ([32], [33]). Table 5 lists the 20 most changed kinases within treated HL60 cell lysates by 0.1 μM 4e, ranked according to their Kinase Score.
(§3) The two multiple-kinase tests (PamChip and Phosphokinase Profiler) provided strong evidence of very minor involvement of Src in the cellular activities of 4e. However, the question must be raised about the effect of the 4e on other SRC family kinase (SFK). To address this point, we must highlight that both R&D phosphokinase profiler and PamChip feature Yes, Fgr, Lyn, Lck and Src while Fyn, Hck, Blk and Frk activities are tested in the PamChip only. The signals of SFKs in the R&D Phosphokinase Profiler were too weak to detect in both untreated (control) and 4e-treated HL60 cells. In PamChip assay, most of SFK’s were not ranked in the top 20 affected kinases (Table 5). In addition, their Specificity Score were very low (Table 6) indicating their marginal importance to the cell killing activities of 4e. Fgr kinase which ranked 7th in the list (Table 5) was the only SFK member that seems to be affected by the compound, albeit with low Specificity Score (1.03).
(§4) The compound 4e was spiked into HL60 cell lysate at different concentrations (0.001, 0.01, 0.1, 1, 10 and 50 μM). In addition, DMSO was also spiked in HL60 lysate at low concentration (2% v/v) as control. Samples were profiled on PamGene’s Tyrosine Kinase (PTK) arrays in technical replicates, covering a total of 196 phosphorylation sites. Frozen HL60 cultured cell pellet was sent to PamGene. […] Protein concentration was measured using standard Bradford assay as per PamGene SOPs. […]

Ros = target: T1, Ros (Homo sapiens, UniProt P08922); assay: PamChip tyrosine kinase microarray, Ros; assay type: biochemical
T1 construct: endogenous in cells; host or cells: HL60 lysate
T1 sequence (P08922 28-2347): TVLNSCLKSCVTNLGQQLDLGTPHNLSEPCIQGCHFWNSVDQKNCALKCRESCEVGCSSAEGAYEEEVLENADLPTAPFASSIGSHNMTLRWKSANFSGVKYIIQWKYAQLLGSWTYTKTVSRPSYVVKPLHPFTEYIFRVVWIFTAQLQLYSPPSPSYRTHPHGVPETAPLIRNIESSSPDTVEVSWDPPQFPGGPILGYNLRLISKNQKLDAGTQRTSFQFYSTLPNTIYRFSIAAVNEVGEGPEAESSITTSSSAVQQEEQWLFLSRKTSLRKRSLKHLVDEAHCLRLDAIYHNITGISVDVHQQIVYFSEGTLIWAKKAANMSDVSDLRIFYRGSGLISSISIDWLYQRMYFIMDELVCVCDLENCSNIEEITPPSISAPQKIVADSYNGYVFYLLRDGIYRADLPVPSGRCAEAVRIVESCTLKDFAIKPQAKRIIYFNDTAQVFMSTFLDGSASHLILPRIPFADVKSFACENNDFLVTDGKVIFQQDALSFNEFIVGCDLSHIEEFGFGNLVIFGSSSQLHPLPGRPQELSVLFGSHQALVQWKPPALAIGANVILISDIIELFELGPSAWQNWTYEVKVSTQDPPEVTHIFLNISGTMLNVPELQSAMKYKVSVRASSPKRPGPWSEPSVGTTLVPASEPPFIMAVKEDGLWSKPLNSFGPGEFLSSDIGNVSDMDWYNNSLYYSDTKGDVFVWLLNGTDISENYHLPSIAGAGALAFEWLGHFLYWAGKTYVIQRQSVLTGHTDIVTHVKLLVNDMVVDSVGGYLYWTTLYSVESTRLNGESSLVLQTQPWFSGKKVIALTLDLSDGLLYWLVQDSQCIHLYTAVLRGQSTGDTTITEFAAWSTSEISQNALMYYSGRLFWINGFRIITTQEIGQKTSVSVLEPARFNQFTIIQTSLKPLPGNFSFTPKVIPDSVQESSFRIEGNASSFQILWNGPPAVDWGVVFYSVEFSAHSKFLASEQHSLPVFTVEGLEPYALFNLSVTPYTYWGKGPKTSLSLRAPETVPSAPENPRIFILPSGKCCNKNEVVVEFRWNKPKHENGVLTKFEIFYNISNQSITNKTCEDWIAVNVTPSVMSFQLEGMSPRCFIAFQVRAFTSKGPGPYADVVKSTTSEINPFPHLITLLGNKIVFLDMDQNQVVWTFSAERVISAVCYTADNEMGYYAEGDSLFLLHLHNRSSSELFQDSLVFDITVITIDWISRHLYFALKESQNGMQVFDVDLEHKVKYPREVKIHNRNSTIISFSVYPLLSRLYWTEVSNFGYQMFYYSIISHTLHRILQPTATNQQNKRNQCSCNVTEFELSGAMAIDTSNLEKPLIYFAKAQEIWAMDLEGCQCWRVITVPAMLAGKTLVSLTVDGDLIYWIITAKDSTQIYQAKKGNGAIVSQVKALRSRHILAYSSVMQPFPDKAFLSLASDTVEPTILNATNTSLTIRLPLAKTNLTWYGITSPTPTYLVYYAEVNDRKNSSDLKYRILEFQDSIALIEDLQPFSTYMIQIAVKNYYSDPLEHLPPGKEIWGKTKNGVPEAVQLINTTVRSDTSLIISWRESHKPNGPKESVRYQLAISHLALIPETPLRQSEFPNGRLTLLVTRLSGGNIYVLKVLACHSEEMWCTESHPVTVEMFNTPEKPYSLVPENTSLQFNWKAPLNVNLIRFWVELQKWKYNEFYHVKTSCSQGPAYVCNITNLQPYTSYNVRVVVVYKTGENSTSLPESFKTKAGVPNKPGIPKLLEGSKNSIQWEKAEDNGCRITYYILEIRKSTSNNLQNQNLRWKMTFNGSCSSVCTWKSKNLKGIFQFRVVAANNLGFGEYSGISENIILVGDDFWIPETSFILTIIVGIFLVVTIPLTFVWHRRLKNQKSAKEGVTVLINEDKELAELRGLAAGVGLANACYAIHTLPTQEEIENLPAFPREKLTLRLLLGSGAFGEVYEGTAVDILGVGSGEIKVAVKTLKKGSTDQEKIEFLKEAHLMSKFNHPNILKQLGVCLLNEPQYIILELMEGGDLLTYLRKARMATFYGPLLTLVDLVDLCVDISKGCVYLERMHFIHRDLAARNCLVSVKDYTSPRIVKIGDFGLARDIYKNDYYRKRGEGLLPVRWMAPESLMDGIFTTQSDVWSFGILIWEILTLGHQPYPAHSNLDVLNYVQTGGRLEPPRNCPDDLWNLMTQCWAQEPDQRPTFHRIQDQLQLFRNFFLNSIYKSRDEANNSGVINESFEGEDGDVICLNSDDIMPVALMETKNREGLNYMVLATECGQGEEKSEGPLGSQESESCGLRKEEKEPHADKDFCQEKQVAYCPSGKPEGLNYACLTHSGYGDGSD
Method: as §1, §2
(§5) The compound 4e was spiked into HL60 cell lysate at different concentrations (0.001, 0.01, 0.1, 1, 10 and 50 μM). In addition, DMSO was also spiked in HL60 lysate at low concentration (2% v/v) as control. Samples were profiled on PamGene’s Tyrosine Kinase (PTK) arrays in technical replicates, covering a total of 196 phosphorylation sites. Frozen HL60 cultured cell pellet was sent to PamGene. At PamGene, cells were lysed using a lysis buffer and proteases inhibitors cocktail. Protein concentration was measured using standard Bradford assay as per PamGene SOPs. These lysates were further used for generating the PTK activity profiles. For spiking, 4e was received as powder form and dissolved in DMSO at PamGene facility followed by storing at -20°C in small aliquots. PamGene used its in-house bioinformatics toolbox in combination with other methods to generate hypotheses of signaling pathways.

ITK = target: T2, ITK (Homo sapiens, UniProt Q08881); assay: PamChip tyrosine kinase microarray, ITK; assay type: biochemical
T2 construct: endogenous in cells; host or cells: HL60 lysate
T2 sequence (Q08881 1-620): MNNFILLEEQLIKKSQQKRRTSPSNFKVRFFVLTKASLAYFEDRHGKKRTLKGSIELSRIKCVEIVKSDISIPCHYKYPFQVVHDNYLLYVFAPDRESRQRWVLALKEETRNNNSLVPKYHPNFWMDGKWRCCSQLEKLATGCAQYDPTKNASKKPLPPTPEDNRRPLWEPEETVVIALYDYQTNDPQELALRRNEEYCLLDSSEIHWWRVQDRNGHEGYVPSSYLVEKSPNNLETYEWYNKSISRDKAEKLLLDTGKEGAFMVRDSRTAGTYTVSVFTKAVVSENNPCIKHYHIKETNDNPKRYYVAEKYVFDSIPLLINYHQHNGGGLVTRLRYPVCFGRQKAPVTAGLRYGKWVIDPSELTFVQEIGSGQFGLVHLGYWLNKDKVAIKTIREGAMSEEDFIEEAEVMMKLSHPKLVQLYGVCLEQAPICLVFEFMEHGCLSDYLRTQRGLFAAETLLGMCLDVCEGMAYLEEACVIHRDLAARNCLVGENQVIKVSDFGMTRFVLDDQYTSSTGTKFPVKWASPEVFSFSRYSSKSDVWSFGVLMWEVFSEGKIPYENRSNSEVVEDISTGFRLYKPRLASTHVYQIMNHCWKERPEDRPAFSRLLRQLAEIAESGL
Method: as §1, §2, §5

Lck = assay: PamChip tyrosine kinase microarray, Lck; assay type: biochemical, human
Method: as §1, §2, §3, §4

EphA5 = target: T3, EphA5 (Homo sapiens, UniProt P54756); assay: PamChip tyrosine kinase microarray, EphA5; assay type: biochemical
T3 construct: endogenous in cells; host or cells: HL60 lysate
T3 sequence (P54756 25-1037): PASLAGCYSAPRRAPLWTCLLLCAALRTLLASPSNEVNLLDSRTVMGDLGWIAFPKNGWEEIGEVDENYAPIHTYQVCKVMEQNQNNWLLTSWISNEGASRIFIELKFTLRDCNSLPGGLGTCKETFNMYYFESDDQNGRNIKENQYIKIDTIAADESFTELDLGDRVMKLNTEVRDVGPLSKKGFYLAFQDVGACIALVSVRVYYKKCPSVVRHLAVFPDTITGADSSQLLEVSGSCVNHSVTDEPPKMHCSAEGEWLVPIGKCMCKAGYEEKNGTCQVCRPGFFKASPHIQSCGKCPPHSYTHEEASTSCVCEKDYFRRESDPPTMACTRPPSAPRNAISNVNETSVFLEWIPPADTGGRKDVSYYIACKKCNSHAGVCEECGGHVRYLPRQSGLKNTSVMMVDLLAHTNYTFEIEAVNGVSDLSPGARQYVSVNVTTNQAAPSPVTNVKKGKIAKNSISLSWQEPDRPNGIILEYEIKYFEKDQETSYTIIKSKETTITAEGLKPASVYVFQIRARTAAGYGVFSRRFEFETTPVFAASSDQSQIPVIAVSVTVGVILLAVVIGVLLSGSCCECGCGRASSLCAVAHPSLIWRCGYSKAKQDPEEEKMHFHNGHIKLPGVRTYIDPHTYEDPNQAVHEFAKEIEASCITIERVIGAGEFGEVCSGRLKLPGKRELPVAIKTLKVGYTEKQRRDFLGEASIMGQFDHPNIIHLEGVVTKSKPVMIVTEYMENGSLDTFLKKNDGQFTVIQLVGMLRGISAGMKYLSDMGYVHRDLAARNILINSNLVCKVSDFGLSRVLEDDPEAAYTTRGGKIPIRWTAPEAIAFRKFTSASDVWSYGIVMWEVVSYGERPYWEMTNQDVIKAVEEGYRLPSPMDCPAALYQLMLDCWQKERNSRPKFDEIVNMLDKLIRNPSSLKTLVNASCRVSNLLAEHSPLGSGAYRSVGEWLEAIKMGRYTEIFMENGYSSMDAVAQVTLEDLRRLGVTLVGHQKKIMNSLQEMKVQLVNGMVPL
Method: as §1, §2, §5

Compound: O=C(Cc1ccc(NC(=O)c2cccc(Cl)c2)cc1)NCc1ccccc1 [Compound 4e, N-(4-(2-(benzylamino)-2-oxoethyl)phenyl)-3-chlorobenzamide]
- Mean Final Score (Src): 0.7589
- Mean Kinase Statistic (Src): -0.3527
- Mean Significance Score (Src): 0.7353
- Mean Specificity Score (Src): 0.0236
- Mean Final Score (Ros): 2.0991
- Mean Kinase Statistic (Ros): -0.9704
- Mean Significance Score (Ros): 0.9578
- Mean Specificity Score (Ros): 1.1413
- Mean Final Score (ITK): 1.9173
- Mean Kinase Statistic (ITK): -0.5666
- Mean Significance Score (ITK): 1.0723
- Mean Specificity Score (ITK): 0.8451
- Mean Final Score (Lck): 1.2290
- Mean Kinase Statistic (Lck): -0.5054
- Mean Significance Score (Lck): 0.8208
- Mean Specificity Score (Lck): 0.4082
- Mean Final Score (EphA5): 2.9453
- Mean Kinase Statistic (EphA5): -0.8931
- Mean Significance Score (EphA5): 1.7474
- Mean Specificity Score (EphA5): 1.1979
